Test results from patent publication US6362212B1, “Oxime derivative and bactericide containing the same as active ingredient” (Shionogi & Company, Ltd., priority 1994, dated 2002).

Key:
Assay type in all cases: in vivo
[1] = test system: Pseudoperonospora cubensis; assay: Controlling effect on Pseudoperonospora cubensis by foliage application (pot experiment); details: foliage spray on cucumber (var. TSUKUBASHIROIBO) first leaves, lesion area after 10 days in moist chamber at 20° C.
Summary of the method: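 Cucumber plants grown 2–3 weeks were sprayed on first leaves with compound (DMF solution diluted in water with spreader); 24 h later, Pseudoperonospora cubensis zoosporangia suspension dropped on leaves. Plants held in moist chamber at 20° C for 10 days; lesion area observed and percent control calculated.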

Pyricularia oryzae = details: foliage spray on rice seedlings (cv. […]), number of lesions six days after the inoculation
Botrytis cinerea = assay: Controlling effect on Botrytis cinerea by foliage application (pot experiment); details: foliage spray on cucumber (cv. TSUKUBASHIROIBO) first leaves, mycelial disks, lesion diameter after 3 days in moist chamber at 20° C.
Protocol: The following Test Examples illustrate the effects of the fungicide of the present invention. (I. Controlling effects on various plant diseases by foliage application (pot experiment)) A test compound was dissolved in a small amount of N,N-dimethylformamide, and the solution was diluted to a given concentration with distilled water containing a spreader. Thus, a liquid sample to be tested was prepared. The liquid sample was sprayed to test plants, and 24 hours thereafter, pathogens were inoculated by the method described below. […] The seeds of cucumber ([…]) were sown in plastic cups (each 9 cm in diameter), followed by cultivation for 2 to 3 weeks. The test compound in the form of a solution or suspension was sprayed to the surface of their first leaves, and mycelial disks (4 mm φ) of Botrytis cinerea cultured on the potato sucrose agar medium were put on the leaf surfaces to inoculate. the cucumber seedlings with the pathogen. The plants were kept in a moist chamber at 20° C. for 3 days. The diameter of the lesions on the leaves was measured and the percent control was calculated.

Sphaerotheca fuliginea = assay: Controlling effect on Sphaerotheca fuliginea by foliage application (pot experiment); details: foliage spray on cucumber (cv. TSUKUBASHIROIBO) first leaves, infected area after 10 days in greenhouse at 20° C.
Summary of the method: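 First leaves of cucumber seedlings, 2-3 weeks old, were sprayed with compound (DMF solution diluted in water with spreader). They were inoculated 24 h later with a Sphaerotheca fuliginea conidia spray and kept 10 days at 20° C in a greenhouse. Percent control was calculated from infected leaf area.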

[2] = test system: Erysiphe graminis f. sp. tritici; assay: Controlling effect on Erysiphe graminis f. sp. tritici by foliage application (pot experiment); details: foliage spray on wheat (cv. NORIN No. 61) seedlings, infected area after 10 days in greenhouse at 20° C.
Summary of the method: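 Wheat seedlings (cv. NORIN No. 61, 2-3 weeks old) sprayed with compound in DMF diluted in water with spreader, then inoculated with conidia 24 hours later. Kept in greenhouse at 20 °C for 10 days; percent control calculated from infected leaf area.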

Puccinia coronata = assay: Controlling effect on Puccinia coronata by foliage application (pot experiment); details: foliage spray on oat (cv. PC-38) seedlings, infected area after 1 day moist chamber and 8 days greenhouse at 20° C.
Protocol: The following Test Examples illustrate the effects of the fungicide of the present invention. (I. Controlling effects on various plant diseases by foliage application (pot experiment)) A test compound was dissolved in a small amount of N,N-dimethylformamide, and the solution was diluted to a given concentration with distilled water containing a spreader. Thus, a liquid sample to be tested was prepared. The liquid sample was sprayed to test plants, and 24 hours thereafter, pathogens were inoculated by the method described below. […] The seeds of oat (cv.: PC-38) were sown in plastic cups (each 9 cm in diameter), followed by cultivation for 2 to 3 weeks. The test compound in the form of a solution or suspension was sprayed to the seedlings. Spores of Puccinia coronata cultured on oat leaves were collected, diluted about 10-fold with talc, and sprayed to the test plants to inoculate the plants with the pathogen. After the inoculation, the plants were kept in a moist chamber at 20° C. for 1 day and then in a greenhouse at 20° C. for 8 days. The infected area on the leaf was observed, and the percent control was calculated.

| SMILES | Controlling effect on Pseudoperonospora cubensis by foliage application at 500 ppm (percent control) [1] [percent control] | Controlling effect on PYricularia orYzae by foliage application at 500 ppm (percent control) (Pyricularia oryzae) | Controlling effect on Botrytis cinerea by foliage application at 500 ppm (percent control) (Botrytis cinerea) | Controlling effect on Sphaerotheca fuliginea by foliage application at 500 ppm (percent control) (Sphaerotheca fuliginea) | Controlling effect on ErYsiphe graminis f. sp. tritici by foliage application at 500 ppm (percent control) [2] [percent control] | Controllng effect on Puccinia coronata by foliage application at 500 ppm (percent control) (Puccinia coronata) |
| --- | --- | --- | --- | --- | --- | --- |
| CON=C(c1ccon1)c1ccccc1COc1ccc(C)cc1 (mixture of isomers) [compound 314] | 100 | 90 | 70 | 100 | 70 | – |
| CON=C(c1ccccc1COc1cccc(Cl)c1)c1nccn1C (single isomer, unassigned) [106A] | 100 | 97 | 70 | 100 | 70 | – |
| CON=C(c1ccccc1COc1ccccc1C)c1nccn1C (single isomer, unassigned) [112A] | 97 | 97 | – | 100 | 100 | 100 |
| CON=C(c1ccccc1COc1cccc(C(F)(F)F)c1)c1nccn1C (single isomer, unassigned) [122A] | 100 | 97 | 70 | 100 | 97 | – |
| CON=C(c1ccccc1COc1ccc(Cl)cc1Cl)c1nccn1C (single isomer, unassigned) [130A] | 100 | – | 70 | 100 | – | – |
| CON=C(c1ccccc1COc1ccc(Cl)c(Cl)c1)c1nccn1C (single isomer, unassigned) [132A] | 100 | 70 | 70 | 100 | 70 | – |
| CON=C(c1ccccc1COc1ccc(Cl)cc1C)c1nccn1C (single isomer, unassigned) [141A] | 100 | 70 | 90 | 100 | 90 | – |
| CON=C(c1ccccc1COc1ccc(-c2ccccc2)cc1)c1nccn1C (single isomer, unassigned) [144A] | 100 | – | 70 | 100 | – | – |
| CON=C(c1ccno1)c1ccccc1COc1cc(C)ccc1C (single isomer, unassigned) [536B] | 100 | 70 | – | 90 | 100 | 97 |
| CON=C(c1cc(C)no1)c1ccccc1COc1ccccc1Cl (single isomer, unassigned) [605A] | 100 | 90 | 70 | 100 | 90 | – |
| CON=C(c1cc(C)no1)c1ccccc1COc1ccc(Cl)cc1 (single isomer, unassigned) [607A] | 97 | 90 | 70 | 90 | 90 | – |
| CON=C(c1cc(C)no1)c1ccccc1COc1ccccc1C (single isomer, unassigned) [612A] | 100 | 90 | – | 97 | 100 | 97 |
| CON=C(c1nnco1)c1ccccc1COc1cccc(C(F)(F)F)c1 [compound 722] | 100 | 90 | – | 100 | 90 | 97 |
| CON=C(c1ncon1)c1ccccc1COc1ccccc1 [compound 801] | 100 | 70 | – | 100 | 90 | 97 |
